60 compounds from patent US8110681B2, “Compounds for the treatment of spinal muscular atrophy and other uses” (The United States of America as represented by the …, priority 2006, dated 2012) can be followed below.

Structures are written as SMILES.

This test concerns SMN2-linked luciferase-reporter gene construct. The experiment in a line: SMN splice reporter assay (SMN2-linked luciferase reporter, Example 10). The class given is cell-based. The following applies: average; for EC50: SMN2-linked luciferase reporter; for maximal fold induction: read-out: SMN Splice Reporter Assay (Example 10) Avg MaxFold Increase. From the text: Cervical carcinoma cell lines were transformed with a SMN2-linked luciferase-reporter gene construct. The reporter is designed to detect shifts in the alternative splicing of SMN2 sequences. In particular, the reporter is constructed as a fusion of the alternatively spliced sequences of the SMN2 gene and the luciferase gene. Luciferase sequences are in the correct translational reading frame only when the SMN2 sequences are spliced according to the normal SMN1 mechanism (e.g., splicing to include exon 7), which allows for translation of the stable SMN protein. Compounds were tested in the assay by administering the compound to the cell line and detecting an increase in the luciferase activity. The assay is described in greater detail in Zhang et al., Gene Ther., 8, 1532-8 (2001). Compounds were administered as described in Lunn et al, Chem. & Biol, 11, 1489-1493 (2004).
The results are reported as a fold-increase over a baseline reading of transformed cells without any test compound.
Background: In a reporter assay the amount or activity of a reporter protein is the signal.

[1] abbreviates: maximum fold increase of reporter signal.

One may read the EC50 as the concentration needed to bring the measured effect to its halfway point. For `CC(C(=O)OC(C)(C)C)c1ccc(N2Cc3ccccc3C2=O)cc1` (stereo not drawn) [ALB-111730], the 50% effective concentration (EC50) amounted to 1.66 µM. Moreover, the “SMN Splice Reporter Assay (Example 10) Avg MaxFold Increase” value under setting [1] is 1.267.
Consider `COC(=O)C(C)c1ccc(N2Cc3ccccc3C2=O)cc1` (stereo not drawn) [ALB-111731], for which it took 0.174 µM to reach a half-maximal effect (EC50). The maximal fold induction under setting [1] was found to be 1.43.
In turn, `CCOC(=O)C(C)c1ccc(N2Cc3ccccc3C2=O)cc1` (stereo not drawn) [ALB-111732] had a half-maximal effective concentration (EC50) of 0.325 µM. Also, the maximal fold induction under setting [1] is 1.41.
The matching figures for `CC(C(=O)OCc1ccccc1)c1ccc(N2Cc3ccccc3C2=O)cc1` (stereo not drawn) [ALB-111733]: 0.528 µM and 1.56.
Taken in the same sequence, the figures for `CC(C(=O)OC(C)(C)C)c1ccc(N2Cc3ccccc3C2=O)cc1` (stereo not drawn) [ALB-111738] were 2.29 µM and 1.17.
The matching figures for `CC(C(=O)OC(C)(C)C)c1ccc(N2Cc3ccc(Cl)cc3C2=O)cc1` (stereo not drawn) [ALB-111740]: 2.02 µM and 1.49.
In the case of `CC(C(=O)NS(C)(=O)=O)c1ccc(N2Cc3ccccc3C2=O)cc1` (stereo not drawn) [ALB-111744], the maximal fold induction under setting [1] turned out to be 1.14.
Compound `CC(C(=O)OC(C)(C)C)c1ccc(N2Cc3ccc(N)cc3C2=O)cc1` (stereo not drawn) [ALB-111745] returned a concentration for a half-maximal effect (EC50) of 2.12 µM. Besides, the maximal fold induction under setting [1] came to 1.17.
As for `CC(C(=O)NC#N)c1ccc(N2Cc3ccccc3C2=O)cc1` (stereo not drawn) [ALB-111746], the maximal fold induction under setting [1] was 1.11.
On the same count and under the same terms, in the case of `CC(C(=O)NS(=O)(=O)c1ccccc1)c1ccc(N2Cc3ccccc3C2=O)cc1` (stereo not drawn) [ALB-111747] it was 1.04.
On to `CC(C(=O)NO)c1ccc(N2Cc3ccccc3C2=O)cc1` (stereo not drawn) [ALB-111748], for which a half-maximal effect (EC50) was put at 2.27 µM. For the same compound, the maximal fold induction under setting [1] was 1.38.
The matching figures for `CC(C(=O)NS(=O)(=O)N(C)C)c1ccc(N2Cc3ccccc3C2=O)cc1` (stereo not drawn) [ALB-111749]: 14 µM and 1.16.
For `CC(C(=O)OC(C)(C)C)c1ccc(N2Cc3c(Cl)cccc3C2=O)cc1` (stereo not drawn) [ALB-111760], the maximal fold induction under setting [1] was 1.07.
For the compound `CC(C(=O)OC(C)(C)C)c1ccc(N2Cc3cc(Cl)ccc3C2=O)cc1` (stereo not drawn) [ALB-111761], the EC50 came to 5.56 µM. Under setting [1], the maximal fold induction amounted to 1.19.
The matching figures for `CC(C(=O)O)c1ccc(N2Cc3cc(Cl)ccc3C2=O)cc1` (stereo not drawn) [ALB-111762]: 0.358 µM and 1.38.
Taken in the same sequence, the figures for `CC(C(=O)O)c1ccc(N2Cc3c(Cl)cccc3C2=O)cc1` (stereo not drawn) [ALB-111763] were 13.9 µM and 1.17.
The matching figures for `CC(C(=O)OC(C)(C)C)c1ccc(N2Cc3cccc(Cl)c3C2=O)cc1` (stereo not drawn) [ALB-111783]: 1.56 µM and 1.13.
In turn, `CC(C(=O)O)c1ccc(N2Cc3cccc(Cl)c3C2=O)cc1` (stereo not drawn) [ALB-111784] showed an EC50 of 1.13 µM. The maximal fold induction under setting [1] came to 1.41.
Taken in the same sequence, the figures for `CCCC1c2ccccc2C(=O)N1c1ccc(C(C)C(=O)O)cc1` (stereo not drawn) [ALB-111795] were 25.8 µM and 1.41.
For the compound `CC(C)(C(=O)O)c1ccc(N2Cc3ccccc3C2=O)cc1` [ALB-111796], it took 3.52 µM to reach a half-maximal effect (EC50). The maximal fold induction under setting [1] came to 1.22.
In turn, `CC(C(=O)OC(C)(C)C)c1ccc(N2Cc3cc(Br)ccc3C2=O)cc1` (stereo not drawn) [ALB-111853] gave an EC50 of 21.4 µM. In addition, under setting [1], the maximal fold induction is 1.1.
In the case of `CC(C(=O)OC(C)(C)C)c1ccc(N2Cc3cc(-c4ccc(Cl)c(Cl)c4)ccc3C2=O)cc1` (stereo not drawn) [ALB-111854], the maximal fold induction under setting [1] was 1.04.
In turn, `CC(C(=O)O)c1ccc(N2Cc3cc(Br)ccc3C2=O)cc1` (stereo not drawn) [ALB-111855] returned an EC50 of 0.553 µM. Moreover, under setting [1], the maximal fold induction is 1.35.
Taken in the same sequence, the figures for `CC(C(=O)NS(=O)(=O)C(C)C)c1ccc(N2Cc3ccccc3C2=O)cc1` (stereo not drawn) [ALB-111856] were 0.568 µM and 1.14.
For the compound `CCCC(C)(C(=O)O)c1ccc(N2Cc3ccccc3C2=O)cc1` (stereo not drawn) [ALB-111857], the maximal fold induction under setting [1] turned out to be 1.07.
Regarding `CC(C(=O)OC(C)(C)C)c1ccc(N2Cc3ccccc3C2=O)cc1Br` (stereo not drawn) [ALB-111882], the EC50 is 2.83 µM. Further, the maximal fold induction under setting [1] turned out to be 1.24.
The matching figures for `CC(C(=O)O)c1ccc(N2Cc3ccc(N)cc3C2=O)cc1` (stereo not drawn) [ALB-111883a]: 1.26 µM and 1.17.
As to `CC(C(=O)OC(C)(C)C)c1ccc(N2Cc3cc(-c4cccnc4)ccc3C2=O)cc1` (stereo not drawn) [ALB-111884], the maximal fold induction under setting [1] is 1.03.
Still for that read-out and setting: next, `CC(C(=O)O)c1ccc(N2Cc3cc(-c4ccc(Cl)c(Cl)c4)ccc3C2=O)cc1` (stereo not drawn) [ALB-111885]: 1.09; `CC(C(=O)OC(C)(C)C)c1ccc(N2Cc3cc(-c4ccc(Cl)cc4)ccc3C2=O)cc1` (stereo not drawn) [ALB-111886]: 1.07.
On the same count and under the same terms, next, `Cc1ccc(-c2ccc3c(c2)CN(c2ccc(C(C)C(=O)OC(C)(C)C)cc2)C3=O)cc1` (stereo not drawn) [ALB-111887]: 1.04; `CC(C(=O)OC(C)(C)C)c1ccc(N2Cc3cc(-c4ccccc4)ccc3C2=O)cc1` (stereo not drawn) [ALB-111888]: 1.1; `CC(C(=O)O)c1ccc(N2Cc3cc(-c4cccnc4)ccc3C2=O)cc1` (stereo not drawn) [ALB-111889]: 1.05.
As to `CC(C(=O)O)c1ccc(N2Cc3cc(-c4ccc(Cl)cc4)ccc3C2=O)cc1` (stereo not drawn) [ALB-111890], the midpoint of the response, the EC50, lay at 7.74 µM. For the same compound, the maximal fold induction under setting [1] was found to be 1.16.
The matching figures for `Cc1ccc(-c2ccc3c(c2)CN(c2ccc(C(C)C(=O)O)cc2)C3=O)cc1` (stereo not drawn) [ALB-111891]: 8.88 µM and 1.31.
As to `COc1ccc(-c2ccc3c(c2)CN(c2ccc(C(C)C(=O)O)cc2)C3=O)cc1` (stereo not drawn) [ALB-111892], the 50% effective concentration (EC50) was 4.31 µM. Besides, under setting [1], the maximal fold induction worked out at 1.46.
`COc1ccc2c(c1)CN(c1ccc(C(C)C(=O)OC(C)(C)C)cc1)C2=O` (stereo not drawn) [ALB-111893]: under setting [1], the maximal fold induction came to 1.09.
For the compound `COc1cccc2c1CN(c1ccc(C(C)C(=O)OC(C)(C)C)cc1)C2=O` (stereo not drawn) [ALB-111894], the EC50 stood at 3.16 µM. Besides, the maximal fold induction under setting [1] is 1.29.
On to `COc1cccc2c1CN(c1ccc(C(C)C(=O)O)cc1)C2=O` (stereo not drawn) [ALB-111895], for which, under setting [1], the maximal fold induction was 1.15.
`CC(C(=O)OC(C)(C)C)c1ccc(N2Cc3cc(N)ccc3C2=O)cc1` (stereo not drawn) [ALB-111949] returned an EC50 of 5.22 µM. Also, under setting [1], the maximal fold induction was 1.29.
As to `CC(C(=O)O)c1ccc(N2Cc3cc(N)ccc3C2=O)cc1` (stereo not drawn) [ALB-111950a], the maximal fold induction under setting [1] came to 1.07.
The same measure, in the same setting: next, `CC(C(=O)OC(C)(C)C)c1ccc(N2Cc3cccc([N+](=O)[O-])c3C2=O)cc1` (stereo not drawn) [ALB-111951]: 1.2; `CC(C(=O)OC(C)(C)C)c1ccc(N2Cc3c(N)cccc3C2=O)cc1` (stereo not drawn) [ALB-111952]: 1.04; `COc1ccc(C(=O)Nc2ccc3c(c2)C(=O)N(c2ccc(C(C)C(=O)OC(C)(C)C)cc2)C3)cc1` (stereo not drawn) [ALB-111954]: 1.04.
In turn, `COc1cccc2c1C(=O)N(c1ccc(C(C)C(=O)OC(C)(C)C)cc1)C2` (stereo not drawn) [ALB-111955] showed an EC50 of 0.396 µM. Besides, the maximal fold induction under setting [1] worked out at 1.08.
On to `COc1cccc2c1C(=O)N(c1ccc(C(C)C(=O)O)cc1)C2` (stereo not drawn) [ALB-111957], for which the maximal fold induction under setting [1] turned out to be 1.23.
On the same count and under the same terms, in the case of `CC(C(=O)OC(C)(C)C)c1ccc(N2Cc3ccc(NC(=O)c4ccccc4)cc3C2=O)cc1` (stereo not drawn) [ALB-111958] it was 1.06.
`COc1ccc2c(c1)CN(c1ccc(C(C)C(=O)O)cc1)C2=O` (stereo not drawn) [ALB-111959] gave a 50% effective concentration (EC50) of 0.451 µM. Also, the maximal fold induction under setting [1] was determined as 1.26.
`CC(=O)Nc1ccc2c(c1)C(=O)N(c1ccc(C(C)C(=O)OC(C)(C)C)cc1)C2` (stereo not drawn) [ALB-111960]: the EC50 stood at 6.62 µM. Under setting [1], the maximal fold induction was 1.24.
As for `CC(C(=O)O)c1ccc(N2Cc3ccccc3C2=O)cc1Br` (stereo not drawn) [ALB-111962], under setting [1], the maximal fold induction turned out to be 1.08.
The same measure, in the same setting: next, `CC(C(=O)OC(C)(C)C)c1ccc(N2Cc3ccccc3C2=O)cc1-c1ccc(Cl)c(Cl)c1` (stereo not drawn) [ALB-111963]: 1.02.
In turn, `CC(C(=O)O)c1ccc(N2C(=O)c3ccccc3C2C)cc1` (stereo not drawn) [ALB-111964] displayed a half-maximal effective concentration (EC50) of 1.43 µM. Also, the maximal fold induction under setting [1] is 1.63.
On to `CC(C(=O)O)c1ccc(N2Cc3ccc(NC(=O)c4ccc(Cl)cc4)cc3C2=O)cc1` (stereo not drawn) [ALB-111983], for which the maximal fold induction under setting [1] came out at 1.06.
As for `COc1ccc(C(=O)Nc2ccc3c(c2)C(=O)N(c2ccc(C(C)C(=O)O)cc2)C3)cc1` (stereo not drawn) [ALB-111984], the EC50 amounted to 9.46 µM. Moreover, under setting [1], the maximal fold induction turned out to be 1.19.
As for `CC(C(=O)O)c1ccc(N2Cc3ccc(NC(=O)c4ccccc4)cc3C2=O)cc1` (stereo not drawn) [ALB-111986], under setting [1], the maximal fold induction was 1.06.
Regarding `CC(C)C(=O)Nc1ccc2c(c1)C(=O)N(c1ccc(C(C)C(=O)OC(C)(C)C)cc1)C2` (stereo not drawn) [ALB-111989], under setting [1], the maximal fold induction turned out to be 1.06.
The same measure, in the same setting: next, `CC(C(=O)OC(C)(C)C)c1ccc(N2Cc3cc(-c4cncnc4)ccc3C2=O)cc1` (stereo not drawn) [ALB-111991]: 1.09; `CC(C(=O)OC(C)(C)C)c1ccc(N2Cc3cc(-c4cccs4)ccc3C2=O)cc1` (stereo not drawn) [ALB-111992]: 1.01.
For the compound `CC(C(=O)O)c1ccc(N2Cc3cc(-c4ccccc4)ccc3C2=O)cc1` (stereo not drawn) [ALB-111993], the 50% effective concentration (EC50) turned out to be 2.95 µM. For the same compound, the maximal fold induction under setting [1] is 1.54.
The matching figures for `CC(C(=O)O)c1ccc(N2Cc3cc(-c4cncnc4)ccc3C2=O)cc1` (stereo not drawn) [ALB-111994]: 4.18 µM and 1.38.
